For one data set, the system named is HEK293T cells. To be noted: Table 16, IAJDs marked a (Zhang et al., J. Am. Chem. Soc. 2021); HEK 293T cells, 125 ng/well, n=3; cited from earlier work.
For data set [1] the following is noted: Table 16, IAJDs marked a (Zhang et al., J. Am. Chem. Soc. 2021); IAJD 4 mg/mL, Luc-mRNA 0.10 mg/mL, acetate buffer 10 mM pH 4.0; cited from earlier work.
The test system of a further data set is BALB/c mice. To be noted: cited from earlier work.
The nature of data set [2]: Stability of DNPs by DLS after storage at 5° C. To be noted: storage time 2 days; CIAJD 4.0 mg/mL; CLuc-mRNA 0.1 mg/mL; acetate buffer pH 4.0. The data set is classed as physicochemical. The arrangement: key: Excellent: the original sizes and distribution remains almost the same after storage; Good: the original relatively big sizes became smaller or broad size distribution became narrower; Not stable: the original relatively big sizes or broad size distribution remained almost the similar level, or the original relatively small sizes became bigger or narrow size distribution became broader. The method, then:
The stability of the DNPs as assayed by DLS. All the samples are prepared in acetate buffer. The stabilities of the constructs were ranked: Excellent (in bold)—the original sizes and distribution remains almost the same after storage; Good—the original relatively big sizes became smaller or broad size distribution became narrower; Not stable—the original relatively big sizes or broad size distribution remained almost the similar level, or the original relatively small sizes became bigger or narrow size distribution became broader.

[3] abbreviates: Table 18, symmetric IAJDs, results available in the literature.
The mark [4] stands for this setting: Table 20, corresponding symmetric IAJDs (literature per Table 18).

Where two headings read alike, the source gives them in different places.

Turning to `CCCCCCCCCCCCCCCCOc1cc(COC(=O)CCCN2CCN(C)CC2)cc(OCCCCCCCCCCC)c1` [IAJD 86, 3-(Hexadecyloxy)-5-(undecyloxy)benzyl 4-(4-methylpiperazin-1-yl)butanoate], the Luminescence with HEK293T cells was 47,066. Besides, in data set [1], the PDI is 0.234 and the “Size (d, nm)” value is on record as 91 nm.

As to `CCCCCCCCCCCCCCOc1cc(COC(=O)CCCN2CCN(C)CC2)cc(OCCCCCCCCCCC)c1` [IAJD 105, 3-(Tetradecyloxy)-5-(undecyloxy)benzyl 4-(4-methylpiperazin-1-yl)butanoate], in the data set with HEK293T cells, the Luminescence is 85. For the same molecule, in data set [1], the PDI is listed as 0.294 and the “Size (d, nm)” value is recorded as 94 nm.

Regarding `CCCCCCCCCCCCCCCCCCOc1cc(COC(=O)CCCN2CCN(C)CC2)cc(OCCCCCCCCCCC)c1` [IAJD 81, 3-(Octadecyloxy)-5-(undecyloxy)benzyl 4-(4-methylpiperazin-1-yl)butanoate], in the data set with HEK293T cells, the Luminescence is given as 206,161. For the same molecule, in data set [1], the PDI was 0.287 and the “Size (d, nm)” value is 111 nm.

Regarding `CCCCCCCCCCCCCCCCCCOc1cc(COC(=O)CCCN2CCN(C)CC2)cc(OCCCCCCCCCCCC)c1` [IAJD 107, 3-(Dodecyloxy)-5-(octadecyloxy)benzyl 4-(4-methylpiperazin-1-yl)butanoate], the Luminescence in the data set on HEK293T cells is 93,745. In data set [1], the PDI is listed as 0.279 and the “Size (d, nm)” value is on record as 146 nm.

In the case of `CCCCCCCCCCCCCCCCOc1cc(COC(=O)CCCN2CCN(C)CC2)cc(OCCCCCCCCCCCC)c1` [IAJD 106, 3-(Dodecyloxy)-5-(hexadecyloxy)benzyl 4-(4-methylpiperazin-1-yl)butanoate], the Luminescence with HEK293T cells is recorded as 309. In data set [1], the PDI is on record as 0.275 and the “Size (d, nm)” value is 105 nm.

On to `CCCCCCCCCCCCCCCCOc1cc(COC(=O)CCCN2CCN(C)CC2)cc(OCCCCCCCCCCCCCCCC)c1` [IAJD 75, 3,5-Bis(hexadecyloxy)benzyl 4-(4-methylpiperazin-1-yl)butanoate], for which the “In vivo activity (total flux, p/s)” value with BALB/c mice (setting [3]) and with BALB/c mice (setting [4]) was 3.37 × 10^7 p/s throughout.

In the case of `CCCCCCCCCOc1cc(COC(=O)CCCN2CCN(C)CC2)cc(OCCCCCCCCC)c1` [IAJD 77, 3,5-Bis(nonyloxy)benzyl 4-(4-methylpiperazin-1-yl)butanoate], in the data set with BALB/c mice (setting [3]), the “In vivo activity (total flux, p/s)” value is on record as 2.44 × 10^6 p/s.

As to `CCCCCCCCOc1cc(COC(=O)CCCN2CCN(CCO)CC2)cc(OCCCCCCCC)c1` [IAJD 89], the “In vivo activity (total flux, p/s)” value in the data set on BALB/c mice (setting [3]) was 5.92 × 10^7 p/s.

Regarding “Diheptyl 5,5′-((5-(((4-(4-methylpiperazin-1-yl)butanoyl)oxy)methyl)-1,3-phenylene)bis(oxy)) dipentanoate [IAJD 85]”, the Ranking of stability entry in data set [2] is “Excellent”.

As for `CCCCCCCCCCCCCCCCCCOc1cc(COC(=O)CCCN2CCN(C)CC2)cc(OCCCCCCCCCCCCCCCCCC)c1` [IAJD 98, 3,5-Bis(octadecyloxy)benzyl 4-(4-methylpiperazin-1-yl)butanoate], the “In vivo activity (total flux, p/s)” value in the data set with BALB/c mice (setting [3]) and in the data set with BALB/c mice (setting [4]) was 2.06 × 10^6 p/s in each case.

With `CCCCCCCCCCCCOc1cc(COC(=O)CCCN2CCN(CCO)CC2)cc(OCCCCCCCCCCCC)c1` [IAJD 71, 3,5-Bis(dodecyloxy)benzyl 4-(4-(2-hydroxyethyl)piperazin-1-yl)butanoate], the “In vivo activity (total flux, p/s)” value with BALB/c mice (setting [3]) and with BALB/c mice (setting [4]) was 3.79 × 10^7 p/s each time. In the data set with HEK293T cells, the Luminescence was 473,548. In data set [1], the PDI was 0.451. Also, in data set [1], the “Size (d, nm)” value is 237 nm.
